This note sets out measurements from US20060122175A1, “Benzdioxane piperazine derivatives with a combination of affinity for dopamine-D2 receptors and serotonin reuptake sites” (SOLVAY PHARMACEUTICALS B.V., priority 2004, published 2006).

For data set [1], the system named is dopamine D2 receptors. Kind of data set: Antagonism of apomorphine-induced climbing behaviour in mice (APO-climb). To be noted: Mus musculus, po, read-out: in vivo activity Dopamine-D2 APO-climb* ED50 mg/kg po.
The target in data set [2] is T1, dopamine-D2 receptors (Rattus norvegicus, UniProt P61169).
T1 construct: labels dopamine receptors in rat pituitary and brain; from tissue; host or cells: rat pituitary and brain (per the title of the cited method)
T1 sequence (P61169 whole entry): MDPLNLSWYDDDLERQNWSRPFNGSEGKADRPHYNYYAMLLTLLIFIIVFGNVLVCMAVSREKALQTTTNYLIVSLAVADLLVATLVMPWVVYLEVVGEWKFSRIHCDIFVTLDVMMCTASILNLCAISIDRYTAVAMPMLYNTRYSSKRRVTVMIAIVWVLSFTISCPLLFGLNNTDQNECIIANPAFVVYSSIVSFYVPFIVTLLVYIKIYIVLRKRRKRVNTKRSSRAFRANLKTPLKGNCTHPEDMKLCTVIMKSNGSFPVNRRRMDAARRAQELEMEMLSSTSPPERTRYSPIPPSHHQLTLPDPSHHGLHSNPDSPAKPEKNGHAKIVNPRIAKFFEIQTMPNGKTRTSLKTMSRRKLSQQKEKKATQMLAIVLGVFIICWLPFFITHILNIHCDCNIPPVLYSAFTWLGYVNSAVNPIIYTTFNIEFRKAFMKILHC
The data set can be described thus: In vitro affinity for dopamine-D2 receptors ([3H]-spiroperidol receptor binding assay). To be noted: average values from three independent experiments. The procedure: The affinity of the compounds of the invention for dopamine-D2 receptors and serotonine reuptake sites was determined as described above. […] Pharmacokinetic, pharmacodynamic, and other considerations may alter the dose actually administered to a higher or lower value. The dosage expediently administered is 0.001-1000 mg/kg, preferably 0.1-100 mg/kg of patient's bodyweight.
(§1) The results in the table below were obtained according to the methods described above. Binding data are average values from three independent experiments.

In data set [3] the test system is serotonin reuptake. The data set can be described thus: Potentiation of 5-HTP induced behaviour in mice. To be noted: Mus musculus, po, read-out: in vivo activity 5-HT reuptake 5-HTP** ED50 mg/kg po. An excerpt: The compounds show activity as antagonists at dopamine D2 receptors as they potentially antagonize apomorphine-induced climbing behaviour in mice (B. Costall et al., ‘Climbing behaviour induced by apomorphine in mice: a potential model for the detection of neuroleptic activity’, Eur. J. Pharmacol., 1978, 1, 39-50). The compounds also show activity as inhibitors of serotonin reuptake, as they potentiate 5-HTP induced behaviour in mice (B. L. Jacobs., ‘An animal behaviour model for studying central serotonergic synapses’, Life Sci., 1976, 19(6), 777-785). The compounds are active in therapeutic models sensitive to clinically relevant antipsychotics (e.g. the conditioned avoidance response; Van der Heyden & Bradford, Behav. Brain Res., 1988, 31:61-67) and antidepressants or anxiolytics (e.g. suppression of stress-induced vocalization; van der Poel et al., Psychopharmacology, 1989, 97: 147-148). In contrast to clinically relevant dopamine D2 receptor antagonists the described compounds have a low propensity to induce catalepsy in rodents and as such are likely to induce less extrapyramidal side effects than existing antipsychotic agents. The inhibitory activity of serotonin reuptake inherent in these compounds may be responsible for the therapeutic effects observed in behavioural models sensitive to either antidepressants or anxiolytics. The compounds can be used for the treatment of affections or diseases of the central nervous system caused by disturbances in either the dopaminergic or serotonergic systems, for example: aggression, anxiety disorders, autism, vertigo, depression, disturbances of cognition or memory, Parkinson's disease, and in particular schizophrenia and other psychotic disorders.

Data set [4] addresses T2, serotonin reuptake sites (Rattus norvegicus, UniProt P31652).
T2 construct: from tissue; host or cells: rat cortical membranes (per the title of the cited method)
The data set can be described thus: In vitro affinity for serotonin reuptake sites ([3H]-paroxetine receptor binding assay). To be noted: average values from three independent experiments; read-out: in vitro affinity 5-HT reuptake binding Ki. The protocol: The affinity of the compounds of the invention for dopamine-D2 receptors and serotonine reuptake sites was determined as described above. From the binding affinity measured for a given compound of formula (1), one can estimate a theoretical lowest effective dose. […] Converting that concentration to mg of compound per kg of patient yields a theoretical lowest effective dose, assuming ideal bioavailability. Pharmacokinetic, pharmacodynamic, and other considerations may alter the dose actually administered to a higher or lower value. The dosage expediently administered is 0.001-1000 mg/kg, preferably 0.1-100 mg/kg of patient's bodyweight.
as §1

Structures can show the parent of a compound that is named as a salt.

As usually defined, the melting point is the temperature, or range, at which the solid turns liquid. As a reminder, the Ki is a measure of affinity in units of concentration, obtained from inhibition or displacement.

T2 sequence (P31652 whole entry): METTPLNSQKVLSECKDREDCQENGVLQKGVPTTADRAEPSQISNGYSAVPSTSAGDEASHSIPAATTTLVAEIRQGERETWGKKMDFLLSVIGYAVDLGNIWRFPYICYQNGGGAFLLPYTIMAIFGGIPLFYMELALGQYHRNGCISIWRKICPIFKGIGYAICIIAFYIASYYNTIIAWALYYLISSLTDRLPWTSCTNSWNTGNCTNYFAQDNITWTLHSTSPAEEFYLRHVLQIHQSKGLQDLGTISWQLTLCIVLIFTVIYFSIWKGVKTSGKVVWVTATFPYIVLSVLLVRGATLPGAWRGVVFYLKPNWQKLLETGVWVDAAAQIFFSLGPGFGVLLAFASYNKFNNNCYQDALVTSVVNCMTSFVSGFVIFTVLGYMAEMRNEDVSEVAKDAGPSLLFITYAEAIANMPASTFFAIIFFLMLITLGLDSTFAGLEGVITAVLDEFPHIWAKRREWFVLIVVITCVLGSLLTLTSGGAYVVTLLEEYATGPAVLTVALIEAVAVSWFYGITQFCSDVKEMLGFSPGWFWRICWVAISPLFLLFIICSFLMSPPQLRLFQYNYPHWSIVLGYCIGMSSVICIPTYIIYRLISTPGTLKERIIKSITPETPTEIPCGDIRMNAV

Compound `Fc1ccc2c(CCCN3CCN(c4cccc5c4OCCO5)CC3)c[nH]c2c1` (as salt: fumaric acid salt) [Compound 5f, 3-{3-[4-(2,3-Dihydro-benzo[1,4]dioxin-5-yl)-piperazin-1-yl]-propyl}-6-fluoro-1H-indole] registered a melting point of 205 to 206 °C.
Same read-out and setting: under `Clc1ccc2[nH]cc(CCCN3CCN(c4cccc5c4OCCO5)CC3)c2c1` (as salt: fumaric acid salt) [Compound 5j, 3-{3-[4-(2,3-Dihydro-benzo[1,4]dioxin-5-yl)-piperazin-1-yl]-propyl}-5-chloro-1H-indole] stands 61 to 63 °C; under `Cc1ccc2[nH]cc(CCCN3CCN(c4cccc5c4OCCO5)CC3)c2c1` (as salt: fumaric acid salt) [Compound 5m, 3-{3-[4-(2,3-Dihydro-benzo[1,4]dioxin-5-yl)-piperazin-1-yl]-propyl}-5-methyl-1H-indole], 215 to 217 °C (dec.); under `c1cc2c(c(N3CCN(Cc4c[nH]c5ccccc45)CC3)c1)OCCO2` [Compound 5a, 3-[4-(2,3-Dihydro-benzo[1,4]dioxin-5-yl)-piperazin-1-yl-methyl]-1H-indole], 85 to 86 °C.
Take `c1cc2c(c(N3CCN(CCCc4c[nH]c5ccccc45)CC3)c1)OCCO2` [Compound 5b, 3-{3-[4-(2,3-Dihydro-benzo[1,4]dioxin-5-yl)-piperazin-1-yl]-propyl}-1H-indole]: the melting point lay within 150 to 152 °C. Also, the ED50 in data set [1] came to 10 mg/kg. Moreover, the Ki in data set [2] is 21 ± 9.9 nM. In addition, in data set [3], the ED50 was found to be 22 mg/kg.
In data set [2], `c1cc2c(c(N3CCN(CCCCCc4c[nH]c5ccccc45)CC3)c1)OCCO2` [Compound 5c, 3-{5-[4-(2,3-Dihydro-benzo[1,4]dioxin-5-yl)-piperazin-1-yl]-pentyl}-1H-indole] yielded an inhibitory constant (Ki) of 9.1 ± 1.8 nM.
`Fc1cccc2[nH]cc(CCCN3CCN(c4cccc5c4OCCO5)CC3)c12` [Compound 5d, 3-{3-[4-(2,3-Dihydro-benzo[1,4]dioxin-5-yl)-piperazin-1-yl]-propyl}-4-fluoro-1H-indole] registered a melting point of 207 to 208 °C. In addition, the ED50 in data set [1] turned out to be 13 mg/kg. The same compound returned an inhibition constant (Ki) in data set [2] of 8.1 ± 3.1 nM. Besides, the ED50 in data set [3] was 32 mg/kg.
On to `Fc1ccc2[nH]cc(CCCN3CCN(c4cccc5c4OCCO5)CC3)c2c1` [Compound 5e, 3-{3-[4-(2,3-Dihydro-benzo[1,4]dioxin-5-yl)-piperazin-1-yl]-propyl}-5-fluoro-1H-indole], for which, in data set [2], the affinity corresponds to a Ki of 19 ± 3 nM. In addition, the ED50 in data set [3] is 2 mg/kg.
As to `Fc1ccc2c(CCCN3CCN(c4cccc5c4OCCO5)CC3)c[nH]c2c1` [Compound 5f, 3-{3-[4-(2,3-Dihydro-benzo[1,4]dioxin-5-yl)-piperazin-1-yl]-propyl}-6-fluoro-1H-indole], the ED50 in data set [1] came to 9 mg/kg; in data set [3], 30 mg/kg.
For `Fc1cccc2c(CCCN3CCN(c4cccc5c4OCCO5)CC3)c[nH]c12` [Compound 5g, 3-{3-[4-(2,3-Dihydro-benzo[1,4]dioxin-5-yl)-piperazin-1-yl]-propyl}-7-fluoro-1H-indole], in data set [2], the inhibitory constant (Ki) stood at 10.6 ± 4 nM. In addition, the ED50 in data set [3] turned out to be 28.4 mg/kg.
In data set [2], `COc1ccc2[nH]cc(CCCN3CCN(c4cccc5c4OCCO5)CC3)c2c1` [Compound 5h, 3-{3-[4-(2,3-Dihydro-benzo[1,4]dioxin-5-yl)-piperazin-1-yl]-propyl}-5-methoxy-1H-indole] came in with a Ki of 5 ± 4 nM.
Compound `Clc1cccc2[nH]cc(CCCN3CCN(c4cccc5c4OCCO5)CC3)c12` [Compound 5i, 3-{3-[4-(2,3-Dihydro-benzo[1,4]dioxin-5-yl)-piperazin-1-yl]-propyl}-4-chloro-1H-indole] yielded a Ki in data set [2] of 24 ± 3 nM.
Regarding `Clc1ccc2[nH]cc(CCCN3CCN(c4cccc5c4OCCO5)CC3)c2c1` [Compound 5j, 3-{3-[4-(2,3-Dihydro-benzo[1,4]dioxin-5-yl)-piperazin-1-yl]-propyl}-5-chloro-1H-indole], the inhibition constant Ki in data set [2] was determined as 31.6 ± 16 nM; in data set [4], 1.4 ± 0.7 nM.
On to `Clc1ccc2c(CCCN3CCN(c4cccc5c4OCCO5)CC3)c[nH]c2c1` [Compound 5k, 3-{3-[4-(2,3-Dihydro-benzo[1,4]dioxin-5-yl)-piperazin-1-yl]-propyl}-6-chloro-1H-indole], for which the values for the ED50 in data set [1] and in data set [3] were 4.5 mg/kg and 86 mg/kg, respectively. In data set [2], this compound gave a Ki of 2.1 ± 1 nM.
The compound `Clc1cccc2c(CCCN3CCN(c4cccc5c4OCCO5)CC3)c[nH]c12` [Compound 5l, 3-{3-[4-(2,3-Dihydro-benzo[1,4]dioxin-5-yl)-piperazin-1-yl]-propyl}-7-chloro-1H-indole] gave a Ki in data set [2] of 15.5 ± 5.4 nM.
`Cc1ccc2[nH]cc(CCCN3CCN(c4cccc5c4OCCO5)CC3)c2c1` [Compound 5m, 3-{3-[4-(2,3-Dihydro-benzo[1,4]dioxin-5-yl)-piperazin-1-yl]-propyl}-5-methyl-1H-indole]: in data set [4], the Ki was found to be 1.3 ± 0.9 nM.
The compound `Cc1cccc2c(CCCN3CCN(c4cccc5c4OCCO5)CC3)c[nH]c12` [Compound 5n, 3-{3-[4-(2,3-Dihydro-benzo[1,4]dioxin-5-yl)-piperazin-1-yl]-propyl}-7-methyl-1H-indole] showed an inhibition constant (Ki) in data set [2] of 15.9 ± 4.7 nM.
The same measure, in the same setting: with `c1cc2c(c(N3CCN(CCCc4c[nH]c5ccccc45)CC3)c1)CCCO2` [Compound 14, 3-[3-(4-chroman-5-yl-piperazine-1-yl)-propyl]-1H-indole] the figure was 20.3 ± 2.7 nM.
